# pIC50: −log10 of the molar value. Activity calls are given as the source filed them.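 The calls were made as follows: active = compounds whose IC50 against parasite growth in infected mouse cells is below 50000 nM; inactive = the rest.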
# Tested on: T. cruzi Tulahuen in NIH-3T3, beta-gal fluorescence, 4 d
# Test: T. cruzi intracellular growth inhibition, cell-based (AID 1159559)
SMILES,pIC50,IC50
O=C(Nc1nc(-c2ccc(S(=O)(=O)N3CCOCC3)cc2)cs1)c1ccc([N+](=O)[O-])cc1,6.00,
CCCCN(C(=O)c1ccc(NC(=O)C(C)C)cc1)c1ccccc1,4.70,
Clc1ccc(C(CC2CCCCO2)Cn2cncn2)c(Cl)c1 (centres undefined),6.40,
O=[N+]([O-])c1ccc(-c2nnn(-c3cccnc3)n2)o1,6.60,
NC(=O)c1ccsc1NC(=O)c1ccc([N+](=O)[O-])s1,7.10,
CC(C)Nc1nccc(-c2c(-c3ccc(F)cc3)ncn2C2CCOCC2)n1,6.60,
O=C(CN(Cc1ccccn1)Cc1ccccn1)NCc1csc(-c2cccs2)n1,5.40,
Cc1nn(C)c(Cl)c1CN(Cc1cccnc1)Cc1ccsc1,6.80,
N#Cc1cc([N+](=O)[O-])ccc1NC1CCCCCC1,5.60,
Cc1ccccc1NS(=O)(=O)c1ccc2[nH]cc(C(=O)NC3CCCC3)c(=O)c2c1,4.60,
Cc1cc(C)n(-c2nc(NC(C)C)nc(NC(C)(C)C)n2)n1,5.70,
CCCNC(=O)Nc1cccc(-c2nc3ncccc3o2)c1,5.60,
Cc1cc2ncn(-c3ccc([N+](=O)[O-])cc3C#N)c2cc1C,5.89,
Nc1cc(-c2ccc3ncnc(N4CCOCC4)c3c2)cnc1N,5.80,
CN(C)Cc1cccc(Nc2nccc(-c3ccc(NCCN)c(C#N)c3)n2)c1,6.00,
CCC(=O)N1N=C(c2ccc3c(c2)CCCC3)Sc2c1ncn2C(=O)CC,5.20,
COc1ccccc1-c1c(C)[nH]c2nc(N)nc(C)c12,6.80,
COc1cccc(C(=O)[C@H]2C[C@@H]2CN(Cc2cccnc2)Cc2cccnc2)c1,7.00,
O=[N+]([O-])c1ccc(-c2nnn(-c3ccc(Cl)cc3)n2)o1,6.60,
COc1cc(OC)cc(C(=O)N[C@@H](CC(C)C)C(=O)NC2(C#N)CC2)c1,,> 50000 nM (inactive)
Cc1nc2c(-c3cccs3)c(C)nn2c(NCCO)c1C,4.40,
CN1CCC(N(C)c2nccc(N3CCN(C(=O)c4cccc(-c5cccnc5)c4)CC3)n2)CC1,6.49,

SMILES,pIC50,IC50
CC(C)(C)c1csc(NC(=O)c2ccc([N+](=O)[O-])s2)n1,6.80,
Cc1ccc(NC(=O)c2ccnc(N3CCCC3)c2)cc1-c1cc(C(N)=O)ccc1C,5.20,
Cc1[nH]nc2c1C(c1ccc(OCc3ccccc3F)cc1)SCC(=O)N2 (centres undefined),5.70,
COc1ccc(C(C)(C)C)cc1S(=O)(=O)n1ccnc1,6.89,
O=C(CSc1ccc(F)cc1)N[C@@H](Cc1cnc[nH]1)C(=O)NCCc1ccccc1,6.40,
CC(C)c1sc(Cl)nc1C(=O)NCCc1nc(C(=O)Nc2ccc3c(c2)OCO3)cs1,5.40,
N#Cc1cnc(Nc2cccc(CCN3CCOCC3)c2)nc1Nc1ccccc1C(N)=O,5.89,
Clc1cc(Br)ccc1OCCCCn1ccnc1,6.20,
O=C(N1CCc2ccccc2CC1)C1(C(=O)N2CCC(n3c(=O)[nH]c4ncccc43)CC2)CC1,6.20,
CS(=O)(=O)NC1CCC(Nc2ncc(Br)c(Nc3ccccc3C(N)=O)n2)CC1 (centres undefined),5.10,
O=C(Nc1nc(-c2ccccn2)cs1)C1CCc2ccccc2C1 (centres undefined),5.70,
Cc1cccc(NS(=O)(=O)c2cnc3sc(C)cn3c2=O)c1,5.89,
O=C(CCc1ccc(-c2ccccc2)o1)N1CCN(c2ccc(O)cc2)CC1,5.49,
CC(=O)Nc1cccc(Nc2ncnc3nc[nH]c23)c1,,> 50000 nM (inactive)
O=C(Nc1nc(-c2ccc(F)cc2)cs1)c1ccc([N+](=O)[O-])s1,6.70,
CC1CN(S(=O)(=O)c2ccc(NC(=O)c3cc(C4CC4)nc4c3cnn4C(C)C)cc2)CC(C)O1 (centres undefined),6.20,
COc1ccc(OC)c2c(=O)c(Cc3ccccc3)c(C)[nH]c12,6.70,
COc1cc(-c2nc(N3CCOCC3)sc2-c2ccnc(NC3CCOCC3)n2)ccc1Cl,6.60,
O=C(Cc1ccccc1)Nc1ccccc1C(=O)Nc1nccs1,4.40,
CC1CCCN(S(=O)(=O)c2ccc(C(=O)Nc3nc(-c4ccccn4)cs3)cc2)C1 (centres undefined),6.40,
CCCCCNC(=O)c1c[nH]c2ccc(S(=O)(=O)N(C)c3ccc(OCC)cc3)cc2c1=O,4.49,
CC(C)n1c(-c2nonc2N)nc2cccc(OCCN3CCCC3)c21,5.00,

# Reference: PubChem BioAssay AID1159559 (GlaxoSmithKline (GSK), 2015)
